Source: US12667572B2, “Tricyclic compounds useful in the treatment of cancer, autoimmune and inflammatory disorders” (SCHRÖDINGER, INC., priority 2021, dated 2026)

biological target: T1, full-length MALT1 protein His-MALT1(1-824) (Homo sapiens, UniProt Q9UDY8); test: MALT1 protease assay, Assay 1 (2 nM MALT1, Ac-LRSR-AMC substrate); type: biochemical; details: 2 nM MALT1, 50 μM Ac-LRSR-AMC, 2 h pre-incubation, 8 hr incubation at RT
T1 construct: full-length MALT1 protein His-MALT1(1-824); His (N); made in house; host or cells: baculovirus-infected insect cells
T1 sequence (Q9UDY8 1-824): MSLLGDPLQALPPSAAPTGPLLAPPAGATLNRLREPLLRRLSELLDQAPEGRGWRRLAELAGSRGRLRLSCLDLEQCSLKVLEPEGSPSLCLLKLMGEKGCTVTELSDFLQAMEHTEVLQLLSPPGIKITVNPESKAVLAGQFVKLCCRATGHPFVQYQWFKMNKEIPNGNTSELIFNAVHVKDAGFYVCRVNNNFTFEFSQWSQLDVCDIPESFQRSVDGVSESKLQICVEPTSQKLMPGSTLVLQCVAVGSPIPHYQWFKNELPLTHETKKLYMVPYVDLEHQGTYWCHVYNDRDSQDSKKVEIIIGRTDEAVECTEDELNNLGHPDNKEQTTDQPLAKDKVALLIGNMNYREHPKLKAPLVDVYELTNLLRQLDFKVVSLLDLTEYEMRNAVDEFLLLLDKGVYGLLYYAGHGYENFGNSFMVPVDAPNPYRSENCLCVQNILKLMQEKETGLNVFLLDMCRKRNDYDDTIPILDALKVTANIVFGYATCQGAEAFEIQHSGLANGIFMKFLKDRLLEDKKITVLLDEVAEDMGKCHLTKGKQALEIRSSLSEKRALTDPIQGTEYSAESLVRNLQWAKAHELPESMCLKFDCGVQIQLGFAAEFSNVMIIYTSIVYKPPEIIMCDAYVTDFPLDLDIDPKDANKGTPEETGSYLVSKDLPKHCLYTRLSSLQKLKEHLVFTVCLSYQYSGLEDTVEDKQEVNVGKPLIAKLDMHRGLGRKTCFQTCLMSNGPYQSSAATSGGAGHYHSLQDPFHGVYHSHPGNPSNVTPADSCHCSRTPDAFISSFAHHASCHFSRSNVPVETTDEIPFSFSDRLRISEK
Description: MALT1 protease activity was assessed in an in vitro assay using a tetrapeptide as substrate and full-length MALT1 protein His-MALT1(1-824) purified from baculovirus-infected insect cells. The tetrapeptide substrate is Ac-LRSR-AMC (SM Biochemicals) with Km measured at around 100 μM.
The final assay buffer includes 1 nM (Assay 2) or 2 nM (Assay 1) of MALT1 full-length protein, 50 μM Ac-LRSR-AMC substrate, 50 mM Tris pH 7.5, 600 mM Sodium Citrate, 1 mM DTT, 1 mM EDTA, and 0.05% BSA in 384-well plate format using black microtiter square well plates (Optiplate 384-F, Perkin Elmer).
Test compounds were dissolved in 100% DMSO at stock of 10 mM, with final DMSO concentration 0.1%. Test compounds were pre-incubated with MALT1 protein for 2 h at room temperature. Substrate was added after the pre-incubation and fluorescence signal was measured using Envision at excitation 355 nm and emission 460 nm after 8 hr incubation at RT. Increase in the assay signal was linear over this period and proportional with increase in the enzyme content.
The fluorescence units were transformed to percentage of remaining activity by using the high control (HC, median of fluorescence signal from wells containing MALT1 protein, substrate, and DMSO) and low control (LC, median of fluorescence signal from wells with substrate only) with the formula below: […]
IC50 and Hill coefficients were obtained using Graph Pad Prism (Graph Pad software, Inc, USA) with non-linear regression analysis.

SMILES | IC50 [nM]
CC1(C)C[C@@H](C(=O)Nc2cnc(-n3cc(C#N)cn3)c(Cl)c2)c2cnc3cc(Cl)nn3c21 (single isomer, unassigned) [Example 14, 2-chloro-N-(5-chloro-6-(4-cyano-1H-pyrazol-1-yl)pyridin-3-yl)-8,8-dimethyl-7,8-dihydro-6H-cyclopenta[e]pyrazolo[1,5-a]pyrimidine-6-carboxamide] | ≥ 1000
Cc1cc2ncc3c(n2n1)C1(CC1)CC3C(=O)Nc1cnc(-n2nccn2)c(Cl)c1 (centres unmarked) [Example 18, N-(5-chloro-6-(2H-1,2,3-triazol-2-yl)pyridin-3-yl)-2-methyl-6,7-dihydrospiro[cyclopenta[e]pyrazolo[1,5-a]pyrimidine-8,1′-cyclopropane]-6-carboxamide] | 100 to 1000
CC1(C)CC(C(=O)Nc2cnc(-n3cc(C#N)cn3)c(Cl)c2)c2cnc3cc(Cl)nn3c21 (single isomer, unassigned) [Example 15, 2-chloro-N-(5-chloro-6-(4-cyano-1H-pyrazol-1-yl)pyridin-3-yl)-8,8-dimethyl-7,8-dihydro-6H-cyclopenta[e]pyrazolo[1,5-a]pyrimidine-6-carboxamide] | 100 to 1000
CC1(C)C[C@@H](C(=O)Nc2cnc(-n3cccn3)c(Cl)c2)c2cnc3cc(Cl)nn3c21 (single isomer, unassigned) [Example 12, 2-chloro-N-(5-chloro-6-(1H-pyrazol-1-yl)pyridin-3-yl)-8,8-dimethyl-7,8-dihydro-6H-cyclopenta[e]pyrazolo[1,5-a]pyrimidine-6-carboxamide] | ≥ 1000
CCc1cc2ncc3c(n2n1)C(C)(C)C[C@H]3C(=O)Nc1cnc(-n2nccn2)c(Cl)c1 (single isomer, unassigned) [Example 20, N-(5-chloro-6-(2H-1,2,3-triazol-2-yl)pyridin-3-yl)-2-ethyl-8,8-dimethyl-7,8-dihydro-6H-cyclopenta[e]pyrazolo[1,5-a]pyrimidine-6-carboxamide] | ≥ 1000
CC(C)(O)c1cnn(-c2ncc(NC(=O)C3CC(C)(C)c4c3cnc3cc(Cl)nn43)cc2Cl)n1 (single isomer, unassigned) [Example 22, 2-chloro-N-(5-chloro-6-(4-(2-hydroxypropan-2-yl)-2H-1,2,3-triazol-2-yl)pyridin-3-yl)-8,8-dimethyl-7,8-dihydro-6H-cyclopenta[e]pyrazolo[1,5-a]pyrimidine-6-carboxamide] | 100 to 1000
CC1(C)C[C@H](C(=O)Nc2cnc([C@@H]3CCCO3)c(Cl)c2)c2cnc3cc(Cl)nn3c21 (single isomer, unassigned) [Example 28, 2-chloro-N-(5-chloro-6-(tetrahydrofuran-2-yl)pyridin-3-yl)-8,8-dimethyl-7,8-dihydro-6H-cyclopenta[e]pyrazolo[1,5-a]pyrimidine-6-carboxamide] | 100 to 1000
Cn1cnc(-c2ncc(NC(=O)[C@@H]3CC(C)(C)c4c3cnc3cc(Cl)nn43)cc2Cl)c1 (single isomer, unassigned) [Example 34, 2-chloro-N-(5-chloro-6-(1-methyl-1H-imidazol-4-yl)pyridin-3-yl)-8,8-dimethyl-7,8-dihydro-6H-cyclopenta[e]pyrazolo[1,5-a]pyrimidine-6-carboxamide] | ≥ 1000
CC1(C)c2c(cnc3cc(Cl)nn23)C(C(=O)Nc2cnc(-n3nccn3)c(Cl)c2)C1O (racemic) [Example 19, 2-chloro-N-(5-chloro-6-(2H-1,2,3-triazol-2-yl)pyridin-3-yl)-7-hydroxy-8,8-dimethyl-7,8-dihydro-6H-cyclopenta[e]pyrazolo[1,5-a]pyrimidine-6-carboxamide] | 100 to 1000
C[C@@]1(C(F)(F)F)C[C@@H](C(=O)Nc2cnc(-n3nccn3)c(Cl)c2)c2cnc3cc(Cl)nn3c21 (single isomer, unassigned) [Example 39, 2-chloro-N-(5-chloro-6-(2H-1,2,3-triazol-2-yl)pyridin-3-yl)-8-methyl-8-(trifluoromethyl)-7,8-dihydro-6H-cyclopenta[e]pyrazolo[1,5-a]pyrimidine-6-carboxamide] | 10 to 100
Cn1ccc(-c2ncc(NC(=O)[C@@H]3CC(C)(C)c4c3cnc3cc(Cl)nn43)cc2Cl)n1 (single isomer, unassigned) [Example 10, 2-chloro-N-(5-chloro-6-(1-methyl-1H-pyrazol-3-yl)pyridin-3-yl)-8,8-dimethyl-7,8-dihydro-6H-cyclopenta[e]pyrazolo[1,5-a]pyrimidine-6-carboxamide] | ≥ 1000
CC1(C)C[C@@H](C(=O)Nc2cnc([C@H]3CCCO3)c(Cl)c2)c2cnc3cc(Cl)nn3c21 (single isomer, unassigned) [Example 27, 2-chloro-N-(5-chloro-6-(tetrahydrofuran-2-yl)pyridin-3-yl)-8,8-dimethyl-7,8-dihydro-6H-cyclopenta[e]pyrazolo[1,5-a]pyrimidine-6-carboxamide] | ≥ 1000
CC1(C)C[C@@H](C(=O)Nc2cnc(N3CCCC3)c(Cl)c2)c2cnc3cc(Cl)nn3c21 (single isomer, unassigned) [Example 16, 2-chloro-N-(5-chloro-6-(pyrrolidin-1-yl)pyridin-3-yl)-8,8-dimethyl-7,8-dihydro-6H-cyclopenta[e]pyrazolo[1,5-a]pyrimidine-6-carboxamide] | ≥ 1000
CC1(C)C[C@@H](C(=O)Nc2cnc(-n3nccn3)c(Cl)c2)c2cnc3cc(F)nn3c21 (single isomer, unassigned) [Example 32, N-(5-chloro-6-(2H-1,2,3-triazol-2-yl)pyridin-3-yl)-2-fluoro-8,8-dimethyl-7,8-dihydro-6H-cyclopenta[e]pyrazolo[1,5-a]pyrimidine-6-carboxamide] | ≥ 1000
CC1(C)C[C@@H](C(=O)Nc2cnc(-n3ncc(CO)n3)c(Cl)c2)c2cnc3cc(Cl)nn3c21 (single isomer, unassigned) [Example 30, 2-chloro-N-(5-chloro-6-(4-(hydroxymethyl)-2H-1,2,3-triazol-2-yl)pyridin-3-yl)-8,8-dimethyl-7,8-dihydro-6H-cyclopenta[e]pyrazolo[1,5-a]pyrimidine-6-carboxamide] | ≥ 1000
CC1(C)CCC(C(=O)Nc2cnc(-n3nccn3)c(Cl)c2)c2cnc3cc(Cl)nn3c21 (centres unmarked) [Example 7, 2-chloro-N-(5-chloro-6-(2H-1,2,3-triazol-2-yl)pyridin-3-yl)-9,9-dimethyl-6,7,8,9-tetrahydropyrazolo[1,5-a]quinazoline-6-carboxamide] | 10 to 100
CC1(C)CC(C(=O)Nc2cnc(-n3nccn3)c(Cl)c2)c2cnc3cc(Cl)nn3c21 (single isomer, unassigned) [Example 1, 2-chloro-N-(5-chloro-6-(2H-1,2,3-triazol-2-yl)pyridin-3-yl)-8,8-dimethyl-7,8-dihydro-6H-cyclopenta[e]pyrazolo[1,5-a]pyrimidine-6-carboxamide] | 100 to 1000
CC1(C)C[C@@H](C(=O)Nc2cnc(-n3nccn3)c(Cl)c2)c2cnc3cc(C(F)F)nn3c21 (single isomer, unassigned) [Example 24, N-(5-chloro-6-(2H-1,2,3-triazol-2-yl)pyridin-3-yl)-2-(difluoromethyl)-8,8-dimethyl-7,8-dihydro-6H-cyclopenta[e]pyrazolo[1,5-a]pyrimidine-6-carboxamide] | ≥ 1000
CC1(C)C[C@@H](C(=O)Nc2cnc(-n3nccn3)c(Cl)c2)c2cnc3cc(C#N)nn3c21 (single isomer, unassigned) [Example 3, N-(5-chloro-6-(2H-1,2,3-triazol-2-yl)pyridin-3-yl)-2-cyano-8,8-dimethyl-7,8-dihydro-6H-cyclopenta[e]pyrazolo[1,5-a]pyrimidine-6-carboxamide] | ≥ 1000
CC1(C)C[C@@H](C(=O)Nc2cnc([C@@H]3CCCO3)c(Cl)c2)c2cnc3cc(Cl)nn3c21 (single isomer, unassigned) [Example 26, 2-chloro-N-(5-chloro-6-(tetrahydrofuran-2-yl)pyridin-3-yl)-8,8-dimethyl-7,8-dihydro-6H-cyclopenta[e]pyrazolo[1,5-a]pyrimidine-6-carboxamide] | ≥ 1000
